Measurements: PMC3701070 (PLoS ONE, 2013)

Columns and labels:
Test in all cases: Cell growth assay
Format in all cases: cell-based
[1] = test system: LS-174T; conditions: Homo sapiens, LS174T, 72 h, RAF WT, KRAS(G12D), 3-day, read-out: gIC50
Description: (§1) Growth was measured with CellTiter-Glo® (Promega) reagent per the manufacturer’s protocol, using a PerkinElmer EnVision™ reader at t = 0 and 72 h. IC50 values for cell growth inhibition (gIC50) were determined.
(§2) (PDF) Click here for additional data file.

[2] = test system: SNU-1; conditions: Homo sapiens, SNU1, 72 h; SNU-1, RAF WT, RAS WT, 3-day; read-out: gIC50
Description: as §1, §2

[3] = test system: SK-MEL-3; conditions: Homo sapiens, SK-MEL3, 72 h; SK-MEL-3, BRAF(V600E), RAS WT, 3-day; read-out: gIC50
Description: as §1, §2

[4] = test system: G401; conditions: Homo sapiens, G-401, 72 h; G401, RAF WT, RAS WT, 3-day; read-out: gIC50
Description: as §1, §2

[5] = test system: NCI-H187; conditions: Homo sapiens, 72 h; NCI-H187, RAF WT, RAS WT, 3-day; read-out: gIC50
Description: as §1, §2

[6] = test system: BFTC-905; conditions: Homo sapiens, 72 h; BFTC-905, RAF WT, NRAS(Q61L), 3-day; read-out: gIC50
Description: as §1, §2

[7] = test system: NCI-H747; conditions: Homo sapiens, 72 h; NCI-H747, RAF WT, KRAS(G13D), 3-day; read-out: gIC50
Description: as §1, §2

[8] = test system: SW1990; conditions: Homo sapiens, 72 h; SW1990, RAF WT, RAS WT, 3-day; read-out: gIC50
Description: as §1, §2

[9] = test system: OV-90; conditions: Homo sapiens, 72 h; OV-90, BRAF(del486-490), RAS WT, 3-day; read-out: gIC50
Description: as §1, §2

[10] = test system: SW-780; conditions: Homo sapiens, SW780, 72 h; SW-780, RAF WT, RAS WT, 3-day; read-out: gIC50
Description: as §1, §2

[11] = test system: BC-3; conditions: Homo sapiens, 72 h; BC-3, RAF WT, RAS WT, 3-day; read-out: gIC50
Description: as §1, §2

[12] = test system: EKVX; conditions: Homo sapiens, 72 h, RAF WT, RAS WT, 3-day, read-out: gIC50
Description: as §1, §2

[13] = test system: SCC-25; conditions: Homo sapiens, 72 h; SCC-25, RAF WT, RAS WT, 3-day; read-out: gIC50
Description: as §1, §2

[14] = test system: KM-12; conditions: Homo sapiens, KM12, 72 h; KM-12, RAF WT, RAS WT, 3-day; read-out: gIC50
Description: as §1, §2

[15] = test system: ZR-75-1; conditions: Homo sapiens, 72 h; ZR-75-1, RAF WT, RAS WT, 3-day; read-out: gIC50
Description: as §1, §2

[16] = test system: A549; conditions: Homo sapiens, 72 h; A549, RAF WT, KRAS(G12S), 3-day; read-out: gIC50
Description: as §1, §2

[17] = test system: UACC-812; conditions: Homo sapiens, 72 h; UACC-812, RAF WT, RAS WT, 3-day; read-out: gIC50
Description: as §1, §2

[18] = test system: SKOV-3; conditions: Homo sapiens, SK-OV-3, 72 h; SKOV-3, RAF WT, RAS WT, 3-day; read-out: gIC50
Description: as §1, §2

[19] = test system: TE381.T; conditions: Homo sapiens, TE 381.T, 72 h, RAF WT, RAS WT, 3-day, read-out: gIC50
Description: as §1, §2

[20] = test system: 647-V; conditions: Homo sapiens, 72 h, RAF WT, RAS WT, 3-day, read-out: gIC50
Description: as §1, §2

[21] = test system: SCC-9; conditions: Homo sapiens, 72 h; SCC-9, RAF WT, RAS WT, 3-day; read-out: gIC50
Description: as §1, §2

[22] = test system: SaOS2; conditions: Homo sapiens, SAOS-2, 72 h; SaOS2, RAF WT, RAS WT, 3-day; read-out: gIC50
Description: as §1, §2

[23] = test system: SK-UT-1; conditions: Homo sapiens, 72 h; SK-UT-1, RAF WT, RAS WT, 3-day; read-out: gIC50
Description: as §1, §2

[24] = test system: MC/CAR; conditions: Homo sapiens, 72 h, RAF WT, RAS WT, 3-day, read-out: gIC50
Description: as §1, §2

[25] = test system: U2OS; conditions: Homo sapiens, 72 h, RAF WT, RAS WT, 3-day, read-out: gIC50
Description: as §1, §2

[26] = test system: SK-LMS-1; conditions: Homo sapiens, 72 h; SK-LMS-1, RAF WT, RAS WT, 3-day; read-out: gIC50
Description: as §1, §2

[27] = test system: HL-60; conditions: Homo sapiens, 72 h; HL-60, RAF WT, RAS WT, 3-day; read-out: gIC50
Description: as §1, §2

[28] = test system: NCI-H716; conditions: Homo sapiens, 72 h; NCI-H716, RAF WT, RAS WT, 3-day; read-out: gIC50
Description: as §1, §2

[29] = test system: HuNS-1; conditions: Homo sapiens, HuNS1, 72 h; HuNS-1, RAF WT, RAS WT, 3-day; read-out: gIC50
Description: as §1, §2

[30] = test system: KHOS-240S; conditions: Homo sapiens, 72 h, RAF WT, RAS WT, 3-day, read-out: gIC50
Description: as §1, §2

[31] = test system: UMUC-3; conditions: Homo sapiens, UMUC3, 72 h; UMUC-3, RAF WT, KRAS(G12C), 3-day; read-out: gIC50
Description: as §1, §2

[32] = test system: MES-SA; conditions: Homo sapiens, 72 h, RAF WT, RAS WT, 3-day, read-out: gIC50
Description: as §1, §2

Measured: IC50

CC(C)(C)c1nc(-c2cccc(NS(=O)(=O)c3c(F)cccc3F)c2F)c(-c2ccnc(N)n2)s1 [dabrafenib]
0.277 µM: [11]
0.029 µM: [9]
0.007 µM: [3]
1.5 µM: [2]
> 10 µM: [1] | [4] | [5] | [6] | [7] | [8] | [10] | [12] | [13] | [14] | [15] | [16] | [17] | [18] | [19] | [20] | [21] | [22] | [23] | [25] | [26] | [28] | [29] | [30] | [31]
2.18 µM: [27]
1 µM: [24]
6.99 µM: [32]
